# From US20200268720A1, “METHODS OF USE OF A CLASS IIA HDAC INHIBITOR” (GlaxoSmithKline LLC, priority 2016, published 2020)
# Test system: MMTV-PyMT tumor transplants
# Test: Orthotopic transplant of MMTV-PyMT tumor pieces into wild-type FVBN or athymic nude Foxn1nu mice
# Format: in vivo, mouse
# Details: treated for 20 days
# Experimental: Two transplant experiments were performed where tumors were extracted from MMTV-PyMT mice and 50-100 mm^3 pieces were inserted into the 4th mammary fat pad of either wild-type FVBN mice or athymic nude Foxn1nu mice. Five days after implant mice were randomly placed into treatment groups and treated as indicated.
smiles,measurement,value
"CC(=O)O[C@H]1C(=O)[C@@]2(C)[C@H]([C@H](OC(=O)c3ccccc3)[C@]3(O)C[C@H](OC(=O)[C@H](O)[C@@H](NC(=O)c4ccccc4)c4ccccc4)C(C)=C1C3(C)C)[C@]1(OC(C)=O)CO[C@@H]1C[C@@H]2O [paclitaxel, 5β,20-epoxy-1,2α,4,7β,10β,13α-hexa-hydroxytax-11-en-9-one 4,10-diacetate 2-benzoate 13-ester with (2R,3S)—N-benzoyl-3-phenylisoserine, reference compound]",transplant growth in T cell deficient athymic nude (Foxn1nu) recipient mice,efficacious
